# Data taken from ChEMBL document CHEMBL5512637, “Development of Membrane-Targeting Fluorescent 2-Phenyl-1H-phenanthro[9,10-d]imidazole-Antimicrobial Peptide Mimic Conjugates against Methicillin-Resistant Staphylococcus aureus” (J Med Chem, 2024).
# Assays:
# [1] = tested on: Staphylococcus aureus; experiment: Antibacterial activity against methicillin-resistant Staphylococcus aureus clinical isolate M-3 incubated for 16 to 18 hrs CLSI based by microbroth dilution assay; assay type: functional; conditions: time 16-18 hrs
# [2] = tested on: Staphylococcus aureus; experiment: Antibacterial activity against methicillin-resistant Staphylococcus aureus clinical isolate M-5 incubated for 16 to 18 hrs CLSI based by microbroth dilution assay; assay type: functional; conditions: time 16-18 hrs
# [3] = tested on: Staphylococcus aureus; experiment: Antibacterial activity against methicillin-resistant Staphylococcus aureus clinical isolate M-4 incubated for 16 to 18 hrs CLSI based by microbroth dilution assay; assay type: functional; conditions: time 16-18 hrs
# [4] = tested on: Staphylococcus aureus; experiment: Antibacterial activity against methicillin-resistant Staphylococcus aureus clinical isolate M-10 incubated for 16 to 18 hrs CLSI based by microbroth dilution assay; assay type: functional; conditions: time 16-18 hrs
# [5] = tested on: Escherichia coli; experiment: Antibacterial activity against Escherichia coli ATCC 25922 incubated for 16 to 18 hrs CLSI based by microbroth dilution assay; assay type: functional; conditions: time 16-18 hrs
# [6] = tested on: Staphylococcus aureus; experiment: Antibacterial activity against methicillin-resistant Staphylococcus aureus clinical isolate M-7 incubated for 16 to 18 hrs CLSI based by microbroth dilution assay; assay type: functional; conditions: time 16-18 hrs
# [7] = tested on: Staphylococcus aureus; experiment: Antibacterial activity against methicillin-resistant Staphylococcus aureus clinical isolate M-8 incubated for 16 to 18 hrs CLSI based by microbroth dilution assay; assay type: functional; conditions: time 16-18 hrs
# [8] = tested on: Staphylococcus aureus; experiment: Antibacterial activity against methicillin-resistant Staphylococcus aureus clinical isolate M-9 incubated for 16 to 18 hrs CLSI based by microbroth dilution assay; assay type: functional; conditions: time 16-18 hrs
# [9] = tested on: Staphylococcus aureus; experiment: Antibacterial activity against methicillin-resistant Staphylococcus aureus clinical isolate M-6 incubated for 16 to 18 hrs CLSI based by microbroth dilution assay; assay type: functional; conditions: time 16-18 hrs
# [10] = tested on: Staphylococcus aureus; experiment: Antibacterial activity against Staphylococcus aureus ATCC 29213 incubated for 16 to 18 hrs CLSI based by microbroth dilution assay; assay type: functional; conditions: time 16-18 hrs
# [11] = Selectivity index, ratio of HC50 for sheep erythrocytes to MIC for Staphylococcus aureus ATCC 29213; assay type: toxicity; conditions: read-out: Selectivity Index
# [12] = tested on: Staphylococcus aureus; experiment: Antibacterial activity against methicillin-resistant Staphylococcus aureus clinical isolate M-1 incubated for 16 to 18 hrs CLSI based by microbroth dilution assay; assay type: functional; conditions: time 16-18 hrs
# [13] = Hemolytic activity in sheep erythrocytes incubated for 1 hr by absorbance based assay; assay type: toxicity, cell-based, Ovis aries, Erythrocyte
# [14] = tested on: Staphylococcus aureus; experiment: Antibacterial activity against methicillin-resistant Staphylococcus aureus clinical isolate M-2 incubated for 16 to 18 hrs CLSI based by microbroth dilution assay; assay type: functional; conditions: time 16-18 hrs
SMILES,MIC [1] [µg/mL],MIC [2] [µg/mL],MIC [3] [µg/mL],MIC [4] [µg/mL],MIC [5] [µg/mL],MIC [6] [µg/mL],MIC [7] [µg/mL],MIC [8] [µg/mL],MIC [9] [µg/mL],MIC [10] [µg/mL],selectivity ratio [11],MIC [12] [µg/mL],HC50 at 1 h [13] [µg/mL],MIC [14] [µg/mL]
CCN(CC)C(=O)C[N+](C)(C)CCCCCn1c(-c2ccc(N(C)C)cc2)nc2c3ccccc3c3ccccc3c21.[Br-],8,8,8,8,128,8,8,8,8,16,67.8,8,1080,8
CCCCCCNC(=O)C[N+](C)(C)CCCCn1c(-c2ccc(N(C)C)cc2)nc2c3ccccc3c3ccccc3c21.[Br-],2,2,2,2,32,1,1,1,2,2,176,2,353,2
CCCNC(=O)C[N+](C)(C)CCCCCn1c(-c2ccc(N(C)C)cc2)nc2c3ccccc3c3ccccc3c21.[Br-],4,8,4,8,64,4,4,4,8,8,91.9,8,735,8
CC(C)N(C(=O)C[N+](C)(C)CCCn1c(-c2ccc(N(C)C)cc2)nc2c3ccccc3c3ccccc3c21)C(C)C.[Br-],2,2,2,2,> 128,2,4,2,2,2,8.6,2,68.5,2
CCCCCCNC(=O)C[N+](C)(C)CCCCCn1c(-c2ccc(N(C)C)cc2)nc2c3ccccc3c3ccccc3c21.[Br-],2,8,1,8,64,1,2,4,2,2,221,8,442,4
CC(C)CN(CC(C)C)C(=O)C[N+](C)(C)CCCCn1c(-c2ccc(N(C)C)cc2)nc2c3ccccc3c3ccccc3c21.[Br-],1,2,1,2,64,1,2,2,1,2,> 79.1,2,158,2
CCCCN(CCCC)C(=O)C[N+](C)(C)CCCCCn1c(-c2ccc(N(C)C)cc2)nc2c3ccccc3c3ccccc3c21.[Br-],1,2,1,4,> 128,1,1,1,1,1,225,4,225,1
CCCCCNC(=O)C[N+](C)(C)CCCCn1c(-c2ccccc2)nc2c3ccccc3c3ccccc3c21.[Br-],4,2,2,2,32,2,2,2,2,4,–,2,–,4
CC(C)CN(CC(C)C)C(=O)C[N+](C)(C)CCCn1c(-c2ccc(N(C)C)cc2)nc2c3ccccc3c3ccccc3c21.[Br-],16,8,4,8,128,32,16,8,16,8,40,8,> 320,16
CCCCCCNC(=O)C[N+](C)(C)CCCn1c(-c2ccc(N(C)C)cc2)nc2c3ccccc3c3ccccc3c21.[Br-],64,64,64,64,> 128,64,128,64,128,64,> 10,64,> 640,128
